± gives the standard deviation of the averaged measurements.
System: HCI-023 (organoid from a triple-negative breast cancer xenograft)
Assay: CTG-3D luminescence at 96 h relative to day-0 seeding control (ratio to day 0); higher = more growth / less cytotoxicity; PDxO 3D drug screen, 96 h, CTG-3D normalised to day-0 seeding control.
Conditions: 12.5 pM; days in culture: 111

SMILES	CTG-3D luminescence at 96 h
O=C(O)C1(C(=O)O)CCC1.[NH2-].[NH2-].[Pt+2] [carboplatin]	1.4
COc1cc2c(Oc3ccc4[nH]c(C)cc4c3F)ncnc2cc1OCCCN1CCCC1 [cediranib]	1.46
C[C@@H]1COCCN1c1cc(C2([S@](C)(=N)=O)CC2)nc(-c2cc[nH]c3nccc2-3)n1 [ceralasertib]	1.26
Cc1cc(Nc2ncc(Cl)c(Nc3ccccc3S(=O)(=O)C(C)C)n2)c(OC(C)C)cc1C1CCNCC1 [ceritinib]	1.47
O=C(c1ccc(F)c(F)c1Nc1ccc(I)cc1F)N1CC(O)([C@@H]2CCCCN2)C1 [cobimetinib]	1.18
C[C@H](NC(=O)CCC(F)(F)F)C(=O)N[C@@H]1C(=O)N(CCO)c2ncccc2-c2ccccc21 [crenigacestat]	1.05
COc1cccc2c1C(=O)c1c(O)c3c(c(O)c1C2=O)C[C@@](O)(C(=O)CO)C[C@@H]3O[C@H]1C[C@H](N)[C@H](O)[C@H](C)O1 [doxorubicin]	1.54
C[C@]12CC[C@@H]3c4ccc(O)cc4C[C@@H](CCCCCCCCC[S+]([O-])CCCC(F)(F)C(F)(F)F)[C@H]3[C@@H]1CC[C@@H]2O (some centres not stated) [fulvestrant]	1.5
Nc1ccn([C@@H]2O[C@H](CO)[C@@H](O)C2(F)F)c(=O)n1 [gemcitabine]	1.4

Same assay, conditions: 12.5 pM; days in culture: 128

SMILES	CTG-3D luminescence at 96 h
O=C(O)C1(C(=O)O)CCC1.[NH2-].[NH2-].[Pt+2] [carboplatin]	1.28 ± 0.071
COc1cc2c(Oc3ccc4[nH]c(C)cc4c3F)ncnc2cc1OCCCN1CCCC1 [cediranib]	1.2 ± 0.11
C[C@@H]1COCCN1c1cc(C2([S@](C)(=N)=O)CC2)nc(-c2cc[nH]c3nccc2-3)n1 [ceralasertib]	1.69 ± 0.07
Cc1cc(Nc2ncc(Cl)c(Nc3ccccc3S(=O)(=O)C(C)C)n2)c(OC(C)C)cc1C1CCNCC1 [ceritinib]	1.39 ± 0.21
O=C(c1ccc(F)c(F)c1Nc1ccc(I)cc1F)N1CC(O)([C@@H]2CCCCN2)C1 [cobimetinib]	1.67 ± 0.072
C[C@H](NC(=O)CCC(F)(F)F)C(=O)N[C@@H]1C(=O)N(CCO)c2ncccc2-c2ccccc21 [crenigacestat]	1.4 ± 0.13
COc1cccc2c1C(=O)c1c(O)c3c(c(O)c1C2=O)C[C@@](O)(C(=O)CO)C[C@@H]3O[C@H]1C[C@H](N)[C@H](O)[C@H](C)O1 [doxorubicin]	1.92 ± 0.31
C[C@]12CC[C@@H]3c4ccc(O)cc4C[C@@H](CCCCCCCCC[S+]([O-])CCCC(F)(F)C(F)(F)F)[C@H]3[C@@H]1CC[C@@H]2O (some centres not stated) [fulvestrant]	1.83 ± 0.07
Nc1ccn([C@@H]2O[C@H](CO)[C@@H](O)C2(F)F)c(=O)n1 [gemcitabine]	1.62 ± 0.34

Same assay, conditions: 0.00025 µM; days in culture: 111

SMILES	CTG-3D luminescence at 96 h
O=C(O)C1(C(=O)O)CCC1.[NH2-].[NH2-].[Pt+2] [carboplatin]	1.31
COc1cc2c(Oc3ccc4[nH]c(C)cc4c3F)ncnc2cc1OCCCN1CCCC1 [cediranib]	1.23
C[C@@H]1COCCN1c1cc(C2([S@](C)(=N)=O)CC2)nc(-c2cc[nH]c3nccc2-3)n1 [ceralasertib]	1.25
Cc1cc(Nc2ncc(Cl)c(Nc3ccccc3S(=O)(=O)C(C)C)n2)c(OC(C)C)cc1C1CCNCC1 [ceritinib]	1.19
O=C(c1ccc(F)c(F)c1Nc1ccc(I)cc1F)N1CC(O)([C@@H]2CCCCN2)C1 [cobimetinib]	1.25
C[C@H](NC(=O)CCC(F)(F)F)C(=O)N[C@@H]1C(=O)N(CCO)c2ncccc2-c2ccccc21 [crenigacestat]	1.15
COc1cccc2c1C(=O)c1c(O)c3c(c(O)c1C2=O)C[C@@](O)(C(=O)CO)C[C@@H]3O[C@H]1C[C@H](N)[C@H](O)[C@H](C)O1 [doxorubicin]	1.21
C[C@]12CC[C@@H]3c4ccc(O)cc4C[C@@H](CCCCCCCCC[S+]([O-])CCCC(F)(F)C(F)(F)F)[C@H]3[C@@H]1CC[C@@H]2O (some centres not stated) [fulvestrant]	1.45
Nc1ccn([C@@H]2O[C@H](CO)[C@@H](O)C2(F)F)c(=O)n1 [gemcitabine]	1.31

Same assay, conditions: 0.00025 µM; days in culture: 128

SMILES	CTG-3D luminescence at 96 h
O=C(O)C1(C(=O)O)CCC1.[NH2-].[NH2-].[Pt+2] [carboplatin]	1.47 ± 0.21
COc1cc2c(Oc3ccc4[nH]c(C)cc4c3F)ncnc2cc1OCCCN1CCCC1 [cediranib]	1.51 ± 0.53
C[C@@H]1COCCN1c1cc(C2([S@](C)(=N)=O)CC2)nc(-c2cc[nH]c3nccc2-3)n1 [ceralasertib]	1.4 ± 0.051
Cc1cc(Nc2ncc(Cl)c(Nc3ccccc3S(=O)(=O)C(C)C)n2)c(OC(C)C)cc1C1CCNCC1 [ceritinib]	1.2 ± 0.45
O=C(c1ccc(F)c(F)c1Nc1ccc(I)cc1F)N1CC(O)([C@@H]2CCCCN2)C1 [cobimetinib]	1.44 ± 0.4
C[C@H](NC(=O)CCC(F)(F)F)C(=O)N[C@@H]1C(=O)N(CCO)c2ncccc2-c2ccccc21 [crenigacestat]	1.35 ± 0.62
COc1cccc2c1C(=O)c1c(O)c3c(c(O)c1C2=O)C[C@@](O)(C(=O)CO)C[C@@H]3O[C@H]1C[C@H](N)[C@H](O)[C@H](C)O1 [doxorubicin]	1.73 ± 0.43
C[C@]12CC[C@@H]3c4ccc(O)cc4C[C@@H](CCCCCCCCC[S+]([O-])CCCC(F)(F)C(F)(F)F)[C@H]3[C@@H]1CC[C@@H]2O (some centres not stated) [fulvestrant]	1.54 ± 0.074
Nc1ccn([C@@H]2O[C@H](CO)[C@@H](O)C2(F)F)c(=O)n1 [gemcitabine]	1.78 ± 0.5

Same assay, conditions: 0.005 µM; days in culture: 111

SMILES	CTG-3D luminescence at 96 h
O=C(O)C1(C(=O)O)CCC1.[NH2-].[NH2-].[Pt+2] [carboplatin]	1.12
COc1cc2c(Oc3ccc4[nH]c(C)cc4c3F)ncnc2cc1OCCCN1CCCC1 [cediranib]	1.27
C[C@@H]1COCCN1c1cc(C2([S@](C)(=N)=O)CC2)nc(-c2cc[nH]c3nccc2-3)n1 [ceralasertib]	0.897
Cc1cc(Nc2ncc(Cl)c(Nc3ccccc3S(=O)(=O)C(C)C)n2)c(OC(C)C)cc1C1CCNCC1 [ceritinib]	1.18
O=C(c1ccc(F)c(F)c1Nc1ccc(I)cc1F)N1CC(O)([C@@H]2CCCCN2)C1 [cobimetinib]	1.15
C[C@H](NC(=O)CCC(F)(F)F)C(=O)N[C@@H]1C(=O)N(CCO)c2ncccc2-c2ccccc21 [crenigacestat]	1.17
COc1cccc2c1C(=O)c1c(O)c3c(c(O)c1C2=O)C[C@@](O)(C(=O)CO)C[C@@H]3O[C@H]1C[C@H](N)[C@H](O)[C@H](C)O1 [doxorubicin]	1.32
C[C@]12CC[C@@H]3c4ccc(O)cc4C[C@@H](CCCCCCCCC[S+]([O-])CCCC(F)(F)C(F)(F)F)[C@H]3[C@@H]1CC[C@@H]2O (some centres not stated) [fulvestrant]	1.4
Nc1ccn([C@@H]2O[C@H](CO)[C@@H](O)C2(F)F)c(=O)n1 [gemcitabine]	1.05

Same assay, conditions: 0.005 µM; days in culture: 128

SMILES	CTG-3D luminescence at 96 h
O=C(O)C1(C(=O)O)CCC1.[NH2-].[NH2-].[Pt+2] [carboplatin]	1.23 ± 0.099
COc1cc2c(Oc3ccc4[nH]c(C)cc4c3F)ncnc2cc1OCCCN1CCCC1 [cediranib]	1.06 ± 0.084
C[C@@H]1COCCN1c1cc(C2([S@](C)(=N)=O)CC2)nc(-c2cc[nH]c3nccc2-3)n1 [ceralasertib]	1.37 ± 0.11
Cc1cc(Nc2ncc(Cl)c(Nc3ccccc3S(=O)(=O)C(C)C)n2)c(OC(C)C)cc1C1CCNCC1 [ceritinib]	1.17 ± 0.21
O=C(c1ccc(F)c(F)c1Nc1ccc(I)cc1F)N1CC(O)([C@@H]2CCCCN2)C1 [cobimetinib]	1.83 ± 0.48
C[C@H](NC(=O)CCC(F)(F)F)C(=O)N[C@@H]1C(=O)N(CCO)c2ncccc2-c2ccccc21 [crenigacestat]	1.31 ± 0.068
COc1cccc2c1C(=O)c1c(O)c3c(c(O)c1C2=O)C[C@@](O)(C(=O)CO)C[C@@H]3O[C@H]1C[C@H](N)[C@H](O)[C@H](C)O1 [doxorubicin]	1.62 ± 0.56
C[C@]12CC[C@@H]3c4ccc(O)cc4C[C@@H](CCCCCCCCC[S+]([O-])CCCC(F)(F)C(F)(F)F)[C@H]3[C@@H]1CC[C@@H]2O (some centres not stated) [fulvestrant]	1.6 ± 0.056
Nc1ccn([C@@H]2O[C@H](CO)[C@@H](O)C2(F)F)c(=O)n1 [gemcitabine]	1.15 ± 0.13

Same assay, conditions: 0.1 µM; days in culture: 111

SMILES	CTG-3D luminescence at 96 h
O=C(O)C1(C(=O)O)CCC1.[NH2-].[NH2-].[Pt+2] [carboplatin]	1.33
COc1cc2c(Oc3ccc4[nH]c(C)cc4c3F)ncnc2cc1OCCCN1CCCC1 [cediranib]	1.19
C[C@@H]1COCCN1c1cc(C2([S@](C)(=N)=O)CC2)nc(-c2cc[nH]c3nccc2-3)n1 [ceralasertib]	1.31
Cc1cc(Nc2ncc(Cl)c(Nc3ccccc3S(=O)(=O)C(C)C)n2)c(OC(C)C)cc1C1CCNCC1 [ceritinib]	1.12
O=C(c1ccc(F)c(F)c1Nc1ccc(I)cc1F)N1CC(O)([C@@H]2CCCCN2)C1 [cobimetinib]	1.13
C[C@H](NC(=O)CCC(F)(F)F)C(=O)N[C@@H]1C(=O)N(CCO)c2ncccc2-c2ccccc21 [crenigacestat]	0.954
COc1cccc2c1C(=O)c1c(O)c3c(c(O)c1C2=O)C[C@@](O)(C(=O)CO)C[C@@H]3O[C@H]1C[C@H](N)[C@H](O)[C@H](C)O1 [doxorubicin]	1.1
C[C@]12CC[C@@H]3c4ccc(O)cc4C[C@@H](CCCCCCCCC[S+]([O-])CCCC(F)(F)C(F)(F)F)[C@H]3[C@@H]1CC[C@@H]2O (some centres not stated) [fulvestrant]	1.27
Nc1ccn([C@@H]2O[C@H](CO)[C@@H](O)C2(F)F)c(=O)n1 [gemcitabine]	0.265

Same assay, conditions: 0.1 µM; days in culture: 128

SMILES	CTG-3D luminescence at 96 h
O=C(O)C1(C(=O)O)CCC1.[NH2-].[NH2-].[Pt+2] [carboplatin]	1.6 ± 0.024
COc1cc2c(Oc3ccc4[nH]c(C)cc4c3F)ncnc2cc1OCCCN1CCCC1 [cediranib]	1.52 ± 0.15
C[C@@H]1COCCN1c1cc(C2([S@](C)(=N)=O)CC2)nc(-c2cc[nH]c3nccc2-3)n1 [ceralasertib]	1.51 ± 0.065
Cc1cc(Nc2ncc(Cl)c(Nc3ccccc3S(=O)(=O)C(C)C)n2)c(OC(C)C)cc1C1CCNCC1 [ceritinib]	1.65 ± 0.042
O=C(c1ccc(F)c(F)c1Nc1ccc(I)cc1F)N1CC(O)([C@@H]2CCCCN2)C1 [cobimetinib]	1.63 ± 0.14
C[C@H](NC(=O)CCC(F)(F)F)C(=O)N[C@@H]1C(=O)N(CCO)c2ncccc2-c2ccccc21 [crenigacestat]	1.51 ± 0.061
COc1cccc2c1C(=O)c1c(O)c3c(c(O)c1C2=O)C[C@@](O)(C(=O)CO)C[C@@H]3O[C@H]1C[C@H](N)[C@H](O)[C@H](C)O1 [doxorubicin]	1.33 ± 0.13
C[C@]12CC[C@@H]3c4ccc(O)cc4C[C@@H](CCCCCCCCC[S+]([O-])CCCC(F)(F)C(F)(F)F)[C@H]3[C@@H]1CC[C@@H]2O (some centres not stated) [fulvestrant]	2.08 ± 0.58
Nc1ccn([C@@H]2O[C@H](CO)[C@@H](O)C2(F)F)c(=O)n1 [gemcitabine]	0.416 ± 0.069

— the supplement of paper PMC8882468
